The first data set relates to hTERT expression. As to the kind of experiment: SEAP assay in hTERT-BJ1-PTERT(3.4)-SEAP cells. In kind it is cell-based. The note with it: Homo sapiens, read-out: SEAP (Inhibition μM ± SD). The procedure: A total of 2×10^3 hTERT-BJ1-PTERT(3.4)-SEAP cells were seeded in the 96-well cell culture plate, and incubated with DMEM (GIBCO®)/glucose mixture and Medium 199 (GIBCO®)/10% FBS/1 mM sodium pyruvate (GIBCO®)/4 mM L-glutamine (GIBCO®) mixture at a ratio of 4:1 at 37° C. for 24 hours. When the cells were attached in the bottom of the well, the seriously-diluted compounds with different concentrations ([…]) were treated with the cells for 48 hours, and the PTERT(3.4)-SEAP cells without drug treatment were being the control. After 48 hours of drug treatment, the cultured medium were collected for performing the analysis of SEAP activity. The cells were washed with 1×PBS once immediately, and the MTT assay was performed to compare the compounds with the relative toxicity or the influence to the proliferation and activity.
The cellular medium after the cellular incubation was transferred into the eppondorf tube, and the activity of endogeneous alkaline phosphatase was inactivated at 65° C. for 10 minutes. After centrification, the mixture was obtained by mixing 50 μl of the supernatant with the equal volume of the SEAP buffer. The mixture and the substrate (120 mM of p-nitrophenylphosphate) were preheated at 37° C. for 10 minutes respectively, and the mixture and the substrate were mixed at a ratio of 1:10 and reacted at 37° C. The absorbance of visible light at 405 nm was determined at the appropriate time intervals, and the enzymatic activity of SEAP was represented by the speed of the increasing absorbance at 405 nm.
In the case of `CN(C)CC(=O)Nc1ccc2c(c1)C(=O)c1cc(NC(=O)CN(C)C)ccc1C2=O` [Compound 8, 2,7-Bis[2-(dimethylamino)acetamido]anthraquinone], the activity at 1 µM was found to be 96 ± 1%, the activity at 10 µM was 44 ± 5% and the activity at 100 µM was found to be 3 ± 13%.

The data set is the same for the next values; noted with them: Homo sapiens; BJ1; compound concentration 1 μM; read-out: SEAP (Inhibition μM ± SD).
Take `CCN(CC)CCC(=O)Nc1ccc2c(c1)C(=O)c1cc(NC(=O)CCN(CC)CC)ccc1C2=O` [Compound 16, 2,7-Bis[3-(diethylamino)propionamido]anthraquinone]: the activity at 1 µM worked out at 84 ± 5%.

The same data set, now with this note: Homo sapiens; BJ1; compound concentration 10 μM; read-out: SEAP (Inhibition μM ± SD).
Consider `CCN(CC)CCC(=O)Nc1ccc2c(c1)C(=O)c1cc(NC(=O)CCN(CC)CC)ccc1C2=O` [Compound 16, 2,7-Bis[3-(diethylamino)propionamido]anthraquinone], for which the activity at 10 µM amounted to 49 ± 3%.

On to `O=C(CCN1CCCC1)Nc1ccc2c(c1)C(=O)c1cc(NC(=O)CCN3CCCC3)ccc1C2=O` [Compound 18, 2,7-Bis[3-(pyrrolidino)propionamido]anthraquinone], for which the activity at 10 µM came out at 67 ± 16%.

The same data set, now with this note: Homo sapiens; BJ1; compound concentration 100 μM; read-out: SEAP (Inhibition μM ± SD).
Turning to `CCN(CC)CCC(=O)Nc1ccc2c(c1)C(=O)c1cc(NC(=O)CCN(CC)CC)ccc1C2=O` [Compound 16, 2,7-Bis[3-(diethylamino)propionamido]anthraquinone], the activity at 100 µM stood at 37 ± 5%.

With `O=C(CCN1CCCC1)Nc1ccc2c(c1)C(=O)c1cc(NC(=O)CCN3CCCC3)ccc1C2=O` [Compound 18, 2,7-Bis[3-(pyrrolidino)propionamido]anthraquinone], the activity at 100 µM was found to be 109 ± 18%.

Tested on in a further data set: not listed separately
Briefly: MTT assay in BJ1 cells. It is filed as cell-based. The note with it: human, hTERT-BJ1-PTERT(3.4)-SEAP cells; BJ1; compound concentration 1 μM; read-out: MTT (Inhibition μM ± SD). On the procedure:
(§1) A total of 2×10^3 […] cells were seeded in the 96-well cell culture plate, and incubated with DMEM (GIBCO®)/glucose mixture and Medium 199 (GIBCO®)/10% FBS/1 mM sodium pyruvate (GIBCO®)/4 mM L-glutamine (GIBCO®) mixture at a ratio of 4:1 at 37° C. for 24 hours. […] After 48 hours of drug treatment, the cultured medium were collected for performing the analysis of SEAP activity. The cells were washed with 1×PBS once immediately, and the MTT assay was performed to compare the compounds with the relative toxicity or the influence to the proliferation and activity. Mitochondria is the place for cellular respiration, and there are many reductive reactions catalyzed by dehydrogenases. MTT is a water-soluble yellow compound, and the […] will be formed after reduction. This crystal can be dissolved in the organic solvent, and has high absorbance at the wavelength of 570 nm. The higher cellular activity or more cell numbers, the more generated crystal violets. Therefore, the cellular activity and cell number can be obtained by the MTT assay. MTT solution was prepared by dissolving MTT powder in PBS solution to achieve 5 mg/ml, filtrated and stored at 4° C. Lysis buffer contained 20% (w/v) of SDS in 50% of N,N-dimethylformamide (DMF, Riedel-deHaën). After the cells were incubated in the 96-well culture plate, the original medium was discarded, 100 μl of the fresh serum-free medium per well and 25 μl of MTT solution per well were added in respectively, and the cells were further incubated in the CO2 incubator at 37° C. for 4 hours. Then, 100 μl of lysis buffer per well was added in and incubated overnight in the CO2 incubator at 37° C. The absorbance at 570 nm was determined by the ELISA reader.
On the technique in general: Tetrazolium assays rely on reduction of a dye to a coloured formazan, in cell work by metabolically active cells.
As to `CN(C)CC(=O)Nc1ccc2c(c1)C(=O)c1cc(NC(=O)CN(C)C)ccc1C2=O` [Compound 8, 2,7-Bis[2-(dimethylamino)acetamido]anthraquinone], the viability at 48 h, 1 µM was 96 ± 3%.

For the molecule `CCN(CC)CCC(=O)Nc1ccc2c(c1)C(=O)c1cc(NC(=O)CCN(CC)CC)ccc1C2=O` [Compound 16, 2,7-Bis[3-(diethylamino)propionamido]anthraquinone], the viability at 48 h, 1 µM was found to be 103 ± 2%.

Consider `O=C(CCN1CCCC1)Nc1ccc2c(c1)C(=O)c1cc(NC(=O)CCN3CCCC3)ccc1C2=O` [Compound 18, 2,7-Bis[3-(pyrrolidino)propionamido]anthraquinone], for which the viability at 48 h, 1 µM was found to be 82 ± 4%.

Still in this data set, the particulars now being: human, hTERT-BJ1-PTERT(3.4)-SEAP cells; BJ1; compound concentration 10 μM; read-out: MTT (Inhibition μM ± SD).
Turning to `CN(C)CC(=O)Nc1ccc2c(c1)C(=O)c1cc(NC(=O)CN(C)C)ccc1C2=O` [Compound 8, 2,7-Bis[2-(dimethylamino)acetamido]anthraquinone], the viability at 48 h, 10 µM turned out to be 45 ± 1%.

Regarding `CCN(CC)CCC(=O)Nc1ccc2c(c1)C(=O)c1cc(NC(=O)CCN(CC)CC)ccc1C2=O` [Compound 16, 2,7-Bis[3-(diethylamino)propionamido]anthraquinone], the viability at 48 h, 10 µM worked out at 55 ± 3%.

`O=C(CCN1CCCC1)Nc1ccc2c(c1)C(=O)c1cc(NC(=O)CCN3CCCC3)ccc1C2=O` [Compound 18, 2,7-Bis[3-(pyrrolidino)propionamido]anthraquinone]: the viability at 48 h, 10 µM was 68%.

The same data set, now with this note: human, hTERT-BJ1-PTERT(3.4)-SEAP cells; BJ1; compound concentration 100 μM; read-out: MTT (Inhibition μM ± SD).
Turning to `CN(C)CC(=O)Nc1ccc2c(c1)C(=O)c1cc(NC(=O)CN(C)C)ccc1C2=O` [Compound 8, 2,7-Bis[2-(dimethylamino)acetamido]anthraquinone], the viability at 48 h, 100 µM is 39 ± 1%.

Turning to `CCN(CC)CCC(=O)Nc1ccc2c(c1)C(=O)c1cc(NC(=O)CCN(CC)CC)ccc1C2=O` [Compound 16, 2,7-Bis[3-(diethylamino)propionamido]anthraquinone], the viability at 48 h, 100 µM amounted to 36 ± 1%.

Regarding `O=C(CCN1CCCC1)Nc1ccc2c(c1)C(=O)c1cc(NC(=O)CCN3CCCC3)ccc1C2=O` [Compound 18, 2,7-Bis[3-(pyrrolidino)propionamido]anthraquinone], the viability at 48 h, 100 µM was determined as 39%.

Tested on in a further data set: not listed separately
Briefly: MTT assay in H1299 cells. In kind it is cell-based. The note with it: human, H1299 cells (H1299/PhTERT-driven SEAP reporter system); H1299; compound concentration 1 μM; read-out: MTT (Inhibition μM ± SD). The procedure:
as §1, with “H1299 is a non-small cell lung cancer cell line with telomerase activity. The cell extract of H1299 cell lines can be used for selecting the telomerase activity inhibitors in vitro and the telomerase activity-inhibited substances in vivo. H1299 cell line was incubated with RPMI 1640 medium supplemented with 10% of fetal bovine serum (FBS). A total” for “A total”, “ELISA reader. The selection of telomerase inhibitors of the anthraquinone compounds provided in the present invention was performed by the […]-driven SEAP system. SEAP is the communication gene in this drug selection model. The SEAP inhibition was shown as follows. […] Subsequently, the linear slope of absorbance to the measuring time was calculated, and the variance of absorbance at 405 nm per minute was represented and compared with the SEAP-producing result of drug-untreated H1299 cells. In addition, the influence of the cell-treated drug solution to the cellular proliferation and the drug toxicity to the cells were considered, and the cellular growth was evaluated by the MTT assay. The drug-treated cells were analyzed by the SEAP assay and the data analysis of MTT assay at the same time. Both results were compared so as to delete the influence of cell number or the activity to SEAP, and the dose-dependent phenomenon could be anticipated in the range of drug concentration designed by the laboratory. […] Since the chemically-synthetic drugs have colors thereon, the SEAP value of drug-treatment without cells was also determined to be the background value which was deducted while treating with the drugs. The candidate drug for inhibiting telomerase on the hTERT gene expression level was evaluated and anticipated.” for “ELISA reader.”
Take `CN(C)CC(=O)Nc1ccc2c(c1)C(=O)c1cc(NC(=O)CN(C)C)ccc1C2=O` [Compound 8, 2,7-Bis[2-(dimethylamino)acetamido]anthraquinone]: the viability at 24 h, 1 µM worked out at 92 ± 13%.

In the case of `CCN(CC)CCC(=O)Nc1ccc2c(c1)C(=O)c1cc(NC(=O)CCN(CC)CC)ccc1C2=O` [Compound 16, 2,7-Bis[3-(diethylamino)propionamido]anthraquinone], the viability at 24 h, 1 µM was 106 ± 15%.

For `O=C(CCN1CCCC1)Nc1ccc2c(c1)C(=O)c1cc(NC(=O)CCN3CCCC3)ccc1C2=O` [Compound 18, 2,7-Bis[3-(pyrrolidino)propionamido]anthraquinone], the viability at 24 h, 1 µM stood at 87 ± 15%.

The same data set, now with this note: human, H1299 cells (H1299/PhTERT-driven SEAP reporter system); H1299; compound concentration 10 μM; read-out: MTT (Inhibition μM ± SD).
As to `CN(C)CC(=O)Nc1ccc2c(c1)C(=O)c1cc(NC(=O)CN(C)C)ccc1C2=O` [Compound 8, 2,7-Bis[2-(dimethylamino)acetamido]anthraquinone], the viability at 24 h, 10 µM was found to be 55 ± 9%.

Regarding `CCN(CC)CCC(=O)Nc1ccc2c(c1)C(=O)c1cc(NC(=O)CCN(CC)CC)ccc1C2=O` [Compound 16, 2,7-Bis[3-(diethylamino)propionamido]anthraquinone], the viability at 24 h, 10 µM was 41 ± 20%.

Regarding `O=C(CCN1CCCC1)Nc1ccc2c(c1)C(=O)c1cc(NC(=O)CCN3CCCC3)ccc1C2=O` [Compound 18, 2,7-Bis[3-(pyrrolidino)propionamido]anthraquinone], the viability at 24 h, 10 µM was found to be 54 ± 7%.

Still in this data set, the particulars now being: human, H1299 cells (H1299/PhTERT-driven SEAP reporter system); H1299; compound concentration 100 μM; read-out: MTT (Inhibition μM ± SD).
Consider `CN(C)CC(=O)Nc1ccc2c(c1)C(=O)c1cc(NC(=O)CN(C)C)ccc1C2=O` [Compound 8, 2,7-Bis[2-(dimethylamino)acetamido]anthraquinone], for which the viability at 24 h, 100 µM stood at 15 ± 12%.

For the molecule `CCN(CC)CCC(=O)Nc1ccc2c(c1)C(=O)c1cc(NC(=O)CCN(CC)CC)ccc1C2=O` [Compound 16, 2,7-Bis[3-(diethylamino)propionamido]anthraquinone], the viability at 24 h, 100 µM amounted to 1 ± 1%.

On to `O=C(CCN1CCCC1)Nc1ccc2c(c1)C(=O)c1cc(NC(=O)CCN3CCCC3)ccc1C2=O` [Compound 18, 2,7-Bis[3-(pyrrolidino)propionamido]anthraquinone], for which the viability at 24 h, 100 µM worked out at 12 ± 10%.

Source of the values: patent US20090253709A1 (NATIONAL DEFENSE MEDICAL CENTER, priority 2008, published 2009).
